Measured values from patent publication US20150374646A1, “TREATMENT OF CANCER AND OTHER CONDITIONS USING A TRANSCRIPTION FACTOR MODULATOR” (C & C BIOPHARMA, LLC, priority 2013, published 2015).

What was measured:
Assay in all cases: Cancer cell line growth inhibition, CellTiter-Glo (Example 3)
Assay type in all cases: cell-based
[1] = tested on: 786-0; details: Homo sapiens, Renal, 72 hours, read-out: growth inhibition of various human cancer cell lines
Protocol: (§1) YT30 was tested for growth inhibition against 67 human cancer cell lines derived from diverse tissues including the National Cancer Institute human cancer cell lines (NCI-60). […] Cells in different wells were treated with various concentrations of YT30, YT86, YT88, or YT128. […] Cell viabilities were determined by the CellTiter-Glo Luminescence Cell Viability assay kit (Promega Corporation, Madison, Wis.) according to manufacturer's protocol.

[2] = tested on: A498; details: Homo sapiens, Renal, 72 hours, read-out: growth inhibition of various human cancer cell lines
Protocol: as §1

[3] = tested on: BT-549; details: Homo sapiens, Breast, 72 hours, read-out: growth inhibition of various human cancer cell lines
Protocol: as §1

[4] = tested on: CCRF-CEM; details: Homo sapiens, Leukemia, 72 hours, read-out: growth inhibition of various human cancer cell lines
Protocol: as §1

[5] = tested on: Caski; details: Homo sapiens, Ca-Ski, Cervical, 72 hours, read-out: growth inhibition of various human cancer cell lines
Protocol: as §1

[6] = tested on: DU-145; details: Homo sapiens, Prostate, 72 hours, read-out: growth inhibition of various human cancer cell lines
Protocol: as §1

[7] = tested on: HL60; details: Homo sapiens, HL-60, Leukemia, 72 hours, read-out: growth inhibition of various human cancer cell lines
Protocol: as §1

[8] = tested on: HS 578T; details: Homo sapiens, Breast, 72 hours, read-out: growth inhibition of various human cancer cell lines
Protocol: as §1

[9] = tested on: HeLa; details: Homo sapiens, Cervical, 72 hours, read-out: growth inhibition of various human cancer cell lines
Protocol: as §1

[10] = tested on: K562; details: Homo sapiens, Leukemia, 72 hours, read-out: growth inhibition of various human cancer cell lines
Protocol: as §1

[11] = tested on: MCF7; details: Homo sapiens, Breast, MCF-7, 72 hours, read-out: growth inhibition of various human cancer cell lines
Protocol: as §1

[12] = tested on: MDA-MB-435; details: Homo sapiens, Breast, 72 hours, read-out: growth inhibition of various human cancer cell lines
Protocol: as §1

[13] = tested on: MDA-MB-468; details: Homo sapiens, Breast, 72 hours, read-out: growth inhibition of various human cancer cell lines
Protocol: as §1

[14] = tested on: MDA-MB231; details: Homo sapiens; Breast, MDA-MB-231; 72 hours; read-out: growth inhibition of various human cancer cell lines
Protocol: as §1

[15] = tested on: MOLT-4; details: Homo sapiens, Leukemia, 72 hours, read-out: growth inhibition of various human cancer cell lines
Protocol: as §1

[16] = tested on: NCI/ADR-RES; details: Homo sapiens, Breast, 72 hours, read-out: growth inhibition of various human cancer cell lines
Protocol: as §1

[17] = tested on: OVCAR-3; details: Homo sapiens, Ovarian, 72 hours, read-out: growth inhibition of various human cancer cell lines
Protocol: as §1

[18] = tested on: OVCAR-4; details: Homo sapiens, Ovarian, 72 hours, read-out: growth inhibition of various human cancer cell lines
Protocol: as §1

[19] = tested on: OVCAR-5; details: Homo sapiens, Ovarian, 72 hours, read-out: growth inhibition of various human cancer cell lines
Protocol: as §1

[20] = tested on: SF-268; details: Homo sapiens, CNS, 72 hours, read-out: growth inhibition of various human cancer cell lines
Protocol: as §1

[21] = tested on: SF-295; details: Homo sapiens, CNS, 72 hours, read-out: growth inhibition of various human cancer cell lines
Protocol: as §1

[22] = tested on: SF-539; details: Homo sapiens, CNS, 72 hours, read-out: growth inhibition of various human cancer cell lines
Protocol: as §1

[23] = tested on: SN12C; details: Homo sapiens, Renal, 72 hours, read-out: growth inhibition of various human cancer cell lines
Protocol: as §1

[24] = tested on: SNB-19; details: Homo sapiens, CNS, 72 hours, read-out: growth inhibition of various human cancer cell lines
Protocol: as §1

[25] = tested on: SNB-75; details: Homo sapiens, CNS, 72 hours, read-out: growth inhibition of various human cancer cell lines
Protocol: as §1

[26] = tested on: SR; details: Homo sapiens, Leukemia, 72 hours, read-out: growth inhibition of various human cancer cell lines
Protocol: as §1

[27] = tested on: T-47D; details: Homo sapiens, T47D, Breast, 72 hours, read-out: growth inhibition of various human cancer cell lines
Protocol: as §1

[28] = tested on: TK-10; details: Homo sapiens, Renal, 72 hours, read-out: growth inhibition of various human cancer cell lines
Protocol: as §1

[29] = tested on: U251; details: Homo sapiens, U-251, CNS, 72 hours, read-out: growth inhibition of various human cancer cell lines
Protocol: as §1

[30] = tested on: UO-31; details: Homo sapiens, Renal, 72 hours, read-out: growth inhibition of various human cancer cell lines
Protocol: as §1

[31] = tested on: siHa; details: Homo sapiens, Cervical, 72 hours, read-out: growth inhibition of various human cancer cell lines
Protocol: as §1

Nc1ccccc1NC(=O)CCCCCNC(=O)c1ccc(-c2ccccc2)o1 [YT88] gave an IC50 [1] of 13.8 µM, an IC50 [2] of 9.54 µM and an IC50 [3] of 10.6 µM. It also gave an IC50 [4] of 2.65 µM, an IC50 [5] of 14.2 µM and an IC50 [6] of 16.2 µM. For the same compound, the IC50 [7] was 6.97 µM, the IC50 [8] was 5.67 µM and the IC50 [9] was 6.02 µM. For the same compound, the IC50 [10] was 5.74 µM, the IC50 [11] was 3.8 µM and the IC50 [12] was 7.59 µM. It also gave an IC50 [13] of 7.42 µM, an IC50 [14] of 4.28 µM and an IC50 [15] of 3 µM. For the same compound, the IC50 [16] was 14.2 µM, the IC50 [17] was 6.57 µM and the IC50 [18] was 11.9 µM. For the same compound, the IC50 [19] was 5.66 µM, the IC50 [20] was 14.4 µM and the IC50 [21] was 6.83 µM. It also gave an IC50 [22] of 6.91 µM, an IC50 [23] of 7.25 µM and an IC50 [24] of 9.61 µM. It also gave an IC50 [25] of 11.2 µM, an IC50 [26] of 5.89 µM and an IC50 [27] of 15 µM. For the same compound, the IC50 [28] was 13.4 µM, the IC50 [29] was 4.38 µM and the IC50 [30] was 9.53 µM. The IC50 [31] was 9.07 µM.
